What all share (test): Cysteine liganding, probe competition
Common to all, as to format: binding

The target in assay [1] is T1, RPS6KA1 Ribosomal protein S6 kinase alpha-1 (Homo sapiens, UniProt Q15418).
T1 construct: Cells were resuspended in cold PBS on ice and sonicated with a probe sonicator to achieve lysis; endogenous in cells
In outline: (§1)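 Read-out is loss of desthiobiotin iodoacetamide labelling at cysteines, measured on streptavidin-enriched tryptic peptides. Compound preincubation ran 1 hr at 25° C in PBS lysate holding 5 mg/ml proteome before the probe was added.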

Assay [2] deals with T2, RRP8 Ribosomal RNA-processing protein 8 (Homo sapiens, UniProt O43159).
T2 construct: Cells were resuspended in cold PBS on ice and sonicated with a probe sonicator to achieve lysis; endogenous in cells
T2 sequence (O43159 1-456): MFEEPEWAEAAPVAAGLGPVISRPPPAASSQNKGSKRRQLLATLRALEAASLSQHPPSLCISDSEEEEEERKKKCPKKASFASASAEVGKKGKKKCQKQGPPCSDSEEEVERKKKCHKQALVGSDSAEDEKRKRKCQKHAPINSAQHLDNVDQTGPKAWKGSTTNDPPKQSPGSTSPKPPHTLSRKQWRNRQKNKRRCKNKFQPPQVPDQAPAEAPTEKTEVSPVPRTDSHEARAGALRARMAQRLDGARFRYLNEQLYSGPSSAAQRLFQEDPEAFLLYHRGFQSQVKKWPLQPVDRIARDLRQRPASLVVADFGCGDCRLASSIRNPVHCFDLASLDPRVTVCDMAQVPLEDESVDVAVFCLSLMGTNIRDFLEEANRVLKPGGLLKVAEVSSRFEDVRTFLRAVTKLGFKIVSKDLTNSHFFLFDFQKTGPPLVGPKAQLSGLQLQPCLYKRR
In outline:
as §1

The target in assay [3] is T3, VPS18 Vacuolar protein sorting-associated protein 18 homolog (Homo sapiens, UniProt Q9P253).
T3 construct: Cells were resuspended in cold PBS on ice and sonicated with a probe sonicator to achieve lysis; endogenous in cells
T3 sequence (Q9P253 1-973): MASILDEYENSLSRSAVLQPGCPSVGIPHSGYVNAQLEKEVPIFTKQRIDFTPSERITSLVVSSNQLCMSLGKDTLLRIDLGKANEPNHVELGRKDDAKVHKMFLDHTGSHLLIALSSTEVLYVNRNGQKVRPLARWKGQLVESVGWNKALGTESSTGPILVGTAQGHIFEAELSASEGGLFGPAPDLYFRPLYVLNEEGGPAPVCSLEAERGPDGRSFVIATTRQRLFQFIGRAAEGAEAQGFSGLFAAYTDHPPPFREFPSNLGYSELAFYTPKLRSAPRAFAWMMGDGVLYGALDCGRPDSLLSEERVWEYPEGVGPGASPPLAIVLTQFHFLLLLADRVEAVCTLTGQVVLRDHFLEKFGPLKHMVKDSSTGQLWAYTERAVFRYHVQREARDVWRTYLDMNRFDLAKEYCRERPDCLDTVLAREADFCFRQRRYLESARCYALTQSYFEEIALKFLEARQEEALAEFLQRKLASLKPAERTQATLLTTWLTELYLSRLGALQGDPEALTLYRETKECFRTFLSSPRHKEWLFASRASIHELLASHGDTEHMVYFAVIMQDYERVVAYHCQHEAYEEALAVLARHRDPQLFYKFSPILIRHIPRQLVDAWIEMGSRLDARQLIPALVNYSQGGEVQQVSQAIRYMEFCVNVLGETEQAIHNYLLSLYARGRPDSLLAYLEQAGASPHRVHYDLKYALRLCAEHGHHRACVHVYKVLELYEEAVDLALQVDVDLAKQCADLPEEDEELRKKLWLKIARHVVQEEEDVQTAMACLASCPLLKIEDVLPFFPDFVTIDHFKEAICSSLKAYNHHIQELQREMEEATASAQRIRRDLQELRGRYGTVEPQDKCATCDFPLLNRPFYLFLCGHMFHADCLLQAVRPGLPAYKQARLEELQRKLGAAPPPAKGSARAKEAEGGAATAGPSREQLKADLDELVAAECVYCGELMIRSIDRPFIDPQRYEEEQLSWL
The essentials: as §1

This note sets out measurements from patent US20200239530A1, “COMPOUNDS AND METHODS OF MODULATING PROTEIN DEGRADATION” (Vividion Therapeutics, Inc., priority 2017, published 2020).

Molecules are shown by their SMILES.

T1 sequence (Q15418 whole entry): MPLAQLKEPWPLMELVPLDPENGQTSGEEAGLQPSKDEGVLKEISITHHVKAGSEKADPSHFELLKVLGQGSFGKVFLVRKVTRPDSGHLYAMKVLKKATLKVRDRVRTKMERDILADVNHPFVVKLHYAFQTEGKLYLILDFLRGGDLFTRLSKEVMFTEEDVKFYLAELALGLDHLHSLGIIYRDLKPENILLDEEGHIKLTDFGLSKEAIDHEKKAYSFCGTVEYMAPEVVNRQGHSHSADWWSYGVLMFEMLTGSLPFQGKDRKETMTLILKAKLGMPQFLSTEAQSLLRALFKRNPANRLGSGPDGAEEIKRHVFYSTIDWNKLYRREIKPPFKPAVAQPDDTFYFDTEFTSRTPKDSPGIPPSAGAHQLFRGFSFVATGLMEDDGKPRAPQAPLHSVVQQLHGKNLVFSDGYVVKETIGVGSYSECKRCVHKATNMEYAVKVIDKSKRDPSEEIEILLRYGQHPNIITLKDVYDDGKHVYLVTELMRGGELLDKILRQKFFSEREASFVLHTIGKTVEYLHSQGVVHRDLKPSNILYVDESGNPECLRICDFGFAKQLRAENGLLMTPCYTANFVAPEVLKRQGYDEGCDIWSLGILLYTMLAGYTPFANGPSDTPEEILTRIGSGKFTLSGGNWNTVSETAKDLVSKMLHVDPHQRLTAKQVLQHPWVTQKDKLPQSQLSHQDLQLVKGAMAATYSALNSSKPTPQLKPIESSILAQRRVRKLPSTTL

In the case of `COc1ccc2c(c1)CCCN2C(=O)CCl` [KB02], the Liganded result in assay [1] (RPS6KA1 Res# 223, uniprot Q15418) is “YES”; in assay [2] (RRP8 Res# 451, uniprot O43159), “YES”; in assay [3] (VPS18 Res# 806, uniprot Q9P253), “YES”.
As for `O=C(CCl)Nc1cc(C(F)(F)F)cc(C(F)(F)F)c1` [KBO3], in assay [1] (uniprot Q15418), the “100 Max” value is 1.03, the 100 ave is recorded as 1.03 and the 500 ave is 30.61. Moreover, the “500 Max” value in assay [1] (uniprot Q15418, in % (unit assumed)) came to 30.61. Also, in assay [2] (uniprot O43159), the “100 Max” value worked out at 14.62, the 100 ave was −3.99, the “500 Max” value stood at 57.64 and the 500 ave is reported as 48.93. Further, in assay [3] (uniprot Q9P253), the “100 Max” value is recorded as 19.6, the 100 ave stood at 16.2, the “500 Max” value worked out at 47.0 and the 500 ave is 47.0.
